Values joined by “and” are separate entries in the source; they are usually repeats but may differ in a detail not shown here. Identical values can stand only once.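 Interpolation was linear, between the two tested concentrations surrounding the appropriate level; five concentrations were tested over 48 hours in 96-well plates. At the GI50, growth is halved. The concentration for full growth arrest is given as TGI.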 Bounds are passed on as bounds.

Some test systems named below: HCC-2998 colon; HCT-116 colon; HL-60(TB) leukemia; LOX IMVI melanoma; NCI/ADR-RES ovarian; OVCAR-4 ovarian; PC-3 prostate; RPMI-8226 leukemia; SK-MEL-5 melanoma; SNB-19 CNS; SW-620 colon; U251 CNS; UACC-62 melanoma; UO-31 renal.
What all share (experiment): NCI-60 cell line screen, 48 h

Take `CS(=O)(=O)OCCN(CCOS(C)(=O)=O)c1ccc(C=Nc2cccc(Cl)c2)cc1`: the TGI in the experiment with HCC-2998 colon is 19.7 µM; with HCT-116 colon it was above 100 µM; with HL-60(TB) leukemia, above 100 µM; with LOX IMVI melanoma it was 15.2 µM; with NCI/ADR-RES ovarian, 27.3 µM; with OVCAR-4 ovarian it was above 63.6 µM. For the same compound, the TGI with PC-3 prostate was above 100 µM; in the experiment on RPMI-8226 leukemia, 32.6 µM; in the experiment on SK-MEL-5 melanoma it was 22.6 µM; in the experiment with SNB-19 CNS, above 46.2 µM; in the experiment with SW-620 colon, above 100 µM; with U251 CNS, 20.7 µM. Further, the figures for the TGI with UACC-62 melanoma and in the experiment on UO-31 renal were 15.6 µM and above 100 µM, respectively.
As for `COc1c(/C=C/C(C)(C)O)cc(C2CC(=O)c3c(O)cc(O)cc3O2)cc1CC=C(C)C` (configuration not stated), the TGI in the experiment with HCC-2998 colon is 8.66 µM; with HCT-116 colon, 18.4 µM; in the experiment with HL-60(TB) leukemia, 30.8 µM; in the experiment with LOX IMVI melanoma, 11.6 µM; in the experiment on NCI/ADR-RES ovarian, 32 µM; in the experiment on OVCAR-4 ovarian it was 24.6 µM. For the same compound, the TGI in the experiment on PC-3 prostate is 16.3 µM; with RPMI-8226 leukemia, 28.4 µM; with SK-MEL-5 melanoma it was 15.6 µM; with SNB-19 CNS it was 18.6 µM; in the experiment on SW-620 colon it was above 50 µM; in the experiment with U251 CNS, 14.4 µM. In addition, the TGI in the experiment on UACC-62 melanoma worked out at 13.3 µM; with UO-31 renal, 1.6 µM.
As to `C=C(C(=O)O)[C@@H]1C[C@@H]2O[C@H]1[C@@H](O)[C@@H](C)CCCC(C)=CCC[C@@]2(C)O`, the TGI in the experiment with HCC-2998 colon, in the experiment with HCT-116 colon, in the experiment with HL-60(TB) leukemia, in the experiment on LOX IMVI melanoma, with NCI/ADR-RES ovarian and with OVCAR-4 ovarian was above 100 µM each time. Further, the TGI in the experiment with PC-3 prostate, with RPMI-8226 leukemia, in the experiment on SK-MEL-5 melanoma, in the experiment on SNB-19 CNS, with SW-620 colon and with U251 CNS was above 100 µM in each case. The TGI with UACC-62 melanoma and in the experiment with UO-31 renal was above 100 µM in each case. The GI50 is 10.5 µM and 32.5 µM in the experiment on HL-60(TB) leukemia; 25 µM and 55.9 µM in the experiment on RPMI-8226 leukemia.
Consider `OC1(c2ccc(-c3ccccc3)cc2)c2ccccc2C2=NCCN21` (configuration not stated), for which the TGI is 40.4 µM in the experiment with HCC-2998 colon; above 100 µM with HCT-116 colon; above 100 µM with HL-60(TB) leukemia; above 100 µM in the experiment on LOX IMVI melanoma; above 100 µM in the experiment with NCI/ADR-RES ovarian; above 100 µM with OVCAR-4 ovarian. The TGI is 62.9 µM in the experiment with PC-3 prostate; above 100 µM in the experiment with RPMI-8226 leukemia; 43.6 µM in the experiment on SK-MEL-5 melanoma; 38.3 µM in the experiment on SNB-19 CNS; above 100 µM in the experiment on SW-620 colon; above 100 µM with U251 CNS. Further, the TGI in the experiment with UACC-62 melanoma is 53.1 µM; in the experiment with UO-31 renal, above 100 µM.
In the case of `COc1ccc(-n2c(N)c(C#N)[nH]c2=O)cc1`, the TGI was above 10 µM in the experiment on HCC-2998 colon; above 10 µM with HCT-116 colon; above 10 µM with HL-60(TB) leukemia; 3.98 µM in the experiment on LOX IMVI melanoma; above 10 µM in the experiment on NCI/ADR-RES ovarian; above 10 µM with OVCAR-4 ovarian. In addition, the TGI in the experiment on PC-3 prostate, in the experiment on RPMI-8226 leukemia, with SK-MEL-5 melanoma, in the experiment on SNB-19 CNS, in the experiment on SW-620 colon and in the experiment on U251 CNS was above 10 µM each time. In addition, the TGI with UACC-62 melanoma and with UO-31 renal was above 10 µM throughout.
For the compound `O=[N+]([O-])c1ccc2c(c1)N([O-])C1(CCCCC1)[N+]2=O`, the TGI in the experiment with HCC-2998 colon is 32.8 µM; with HCT-116 colon, 33.3 µM; with HL-60(TB) leukemia, above 100 µM; in the experiment with LOX IMVI melanoma, 42.2 µM; in the experiment with NCI/ADR-RES ovarian it was 77.7 µM; in the experiment on OVCAR-4 ovarian, 23.7 µM. The TGI in the experiment on PC-3 prostate was 31.2 µM; in the experiment on RPMI-8226 leukemia, 65 µM; with SK-MEL-5 melanoma it was 28.9 µM; with SNB-19 CNS it was above 100 µM; with SW-620 colon, 56 µM; in the experiment with U251 CNS, 32.3 µM. In addition, the TGI with UACC-62 melanoma was determined as 37.1 µM; in the experiment with UO-31 renal, 33.7 µM.
For `c1cc2c(cc1NC1=NCCO1)OCO2`, the TGI in the experiment with HCC-2998 colon, in the experiment with HCT-116 colon, with HL-60(TB) leukemia, in the experiment with LOX IMVI melanoma, with NCI/ADR-RES ovarian and with OVCAR-4 ovarian was above 100 µM each time. The TGI in the experiment with PC-3 prostate, in the experiment on RPMI-8226 leukemia, in the experiment with SK-MEL-5 melanoma, with SNB-19 CNS, with SW-620 colon and in the experiment with U251 CNS was above 100 µM throughout. In addition, the TGI in the experiment with UACC-62 melanoma and in the experiment on UO-31 renal was above 100 µM each time.
As to `Clc1ccc(C2=NN=C3C(c4ccccc4)=Nc4ccccc4N3C2)cc1`, the TGI in the experiment on HCC-2998 colon was above 100 µM; with HCT-116 colon, above 100 µM; in the experiment on HL-60(TB) leukemia it was 17.6 µM; in the experiment on LOX IMVI melanoma, above 100 µM; with NCI/ADR-RES ovarian it was above 100 µM; in the experiment with OVCAR-4 ovarian, above 43.9 µM. For the same compound, the TGI is above 100 µM in the experiment on PC-3 prostate; above 29.4 µM in the experiment on RPMI-8226 leukemia; 16.5 µM in the experiment on SK-MEL-5 melanoma; above 100 µM with SNB-19 CNS; above 100 µM in the experiment on SW-620 colon; above 100 µM with U251 CNS. Moreover, the TGI is above 100 µM in the experiment with UACC-62 melanoma and above 80 µM in the experiment with UO-31 renal.
Take `NC(N)=NC(N)=Nc1ccc(S(=O)(=O)O)cc1`: the TGI with HCC-2998 colon, in the experiment with HCT-116 colon, with HL-60(TB) leukemia, with LOX IMVI melanoma, in the experiment with NCI/ADR-RES ovarian and in the experiment on OVCAR-4 ovarian was above 100 µM each time. Moreover, the TGI in the experiment with PC-3 prostate, with RPMI-8226 leukemia, in the experiment on SK-MEL-5 melanoma, in the experiment with SNB-19 CNS, with SW-620 colon and in the experiment on U251 CNS was above 100 µM throughout. The TGI in the experiment on UACC-62 melanoma and in the experiment on UO-31 renal was above 100 µM throughout.
`COc1ccc(-n2[nH]nc(C(N)=O)c2=O)cc1`: the TGI with HCC-2998 colon, with HCT-116 colon, in the experiment on HL-60(TB) leukemia, in the experiment with LOX IMVI melanoma, in the experiment on NCI/ADR-RES ovarian and with OVCAR-4 ovarian was above 100 µM throughout. Also, the TGI with PC-3 prostate, in the experiment on RPMI-8226 leukemia, in the experiment on SK-MEL-5 melanoma, in the experiment with SNB-19 CNS, with SW-620 colon and in the experiment on U251 CNS was above 100 µM in each case. Besides, the TGI in the experiment with UACC-62 melanoma and in the experiment on UO-31 renal was above 100 µM each time.
As to `O=C1CC(c2ccccc2)C2(C(=O)NC(=S)NC2=O)C(c2ccccc2)C1` (configuration not stated), the TGI with HCC-2998 colon, in the experiment on HCT-116 colon, in the experiment on HL-60(TB) leukemia, in the experiment on LOX IMVI melanoma, in the experiment on NCI/ADR-RES ovarian and in the experiment with OVCAR-4 ovarian was above 75 µM each time. For the same compound, the TGI is above 75 µM in the experiment with PC-3 prostate; 73.3 µM in the experiment with RPMI-8226 leukemia; above 75 µM in the experiment on SK-MEL-5 melanoma; above 75 µM in the experiment with SNB-19 CNS; above 75 µM with SW-620 colon; above 75 µM in the experiment with U251 CNS. Further, the TGI with UACC-62 melanoma and with UO-31 renal was above 75 µM throughout.
For the compound `Cc1ccccc1OC(C)C(=O)NN1C(=O)CSC1c1ccc(Cl)cc1` (configuration not stated), the TGI with HCC-2998 colon is above 100 µM; in the experiment with HCT-116 colon, above 95.5 µM; in the experiment with HL-60(TB) leukemia it was 47.5 µM; in the experiment with LOX IMVI melanoma it was above 58.8 µM; in the experiment on NCI/ADR-RES ovarian, above 100 µM; with OVCAR-4 ovarian, above 100 µM. In addition, the TGI with PC-3 prostate was above 100 µM; in the experiment on RPMI-8226 leukemia, above 61 µM; in the experiment with SK-MEL-5 melanoma, above 100 µM; with SNB-19 CNS, above 100 µM; in the experiment with SW-620 colon, above 81.2 µM; with U251 CNS, above 93.4 µM. The TGI with UACC-62 melanoma and in the experiment on UO-31 renal was above 100 µM each time.
With `c1ccc(C(NCC2CCO2)(c2ccccc2)c2ccccc2)cc1` (configuration not stated), the TGI worked out at 30.6 µM in the experiment with HCC-2998 colon; 56 µM in the experiment with HCT-116 colon; 48.8 µM with HL-60(TB) leukemia; 95.5 µM in the experiment with LOX IMVI melanoma; 28.9 µM in the experiment with NCI/ADR-RES ovarian; 30.2 µM in the experiment with OVCAR-4 ovarian. In addition, the TGI in the experiment on PC-3 prostate was 31.6 µM; in the experiment with RPMI-8226 leukemia it was above 100 µM; in the experiment on SK-MEL-5 melanoma, 63.9 µM; in the experiment on SNB-19 CNS, 27.6 µM; with SW-620 colon, 44.4 µM; with U251 CNS, 54 µM. For the same compound, the TGI in the experiment on UACC-62 melanoma was 32 µM; in the experiment on UO-31 renal, 25.3 µM.
For `Cc1nc(C)c(N2CCN(S(=O)(=O)N(Cc3ccccc3)Cc3ccccc3)CC2)c(=O)[nH]1`, the TGI with HCC-2998 colon, in the experiment on HCT-116 colon, in the experiment with HL-60(TB) leukemia, with LOX IMVI melanoma, in the experiment on NCI/ADR-RES ovarian and in the experiment with OVCAR-4 ovarian was above 100 µM throughout. Also, the TGI with PC-3 prostate is above 100 µM; in the experiment on RPMI-8226 leukemia it was above 100 µM; in the experiment on SK-MEL-5 melanoma, above 100 µM; in the experiment on SNB-19 CNS it was 27.6 µM; in the experiment with SW-620 colon, above 100 µM; with U251 CNS it was 20.4 µM. Moreover, the TGI in the experiment on UACC-62 melanoma and in the experiment with UO-31 renal was above 100 µM throughout.
Consider `CC[C@@]1(O)C(=O)OCc2c1cc1n(c2=O)Cc2c-1nc1ccccc1c2/C=N\NC(=O)C1CCCN1` (some centres not stated), for which the TGI in the experiment on HCC-2998 colon was above 53.7 µM; with HCT-116 colon, 21.2 µM; in the experiment on HL-60(TB) leukemia it was above 100 µM; in the experiment on LOX IMVI melanoma, 2.67 µM; in the experiment with NCI/ADR-RES ovarian, 20.5 µM; in the experiment with OVCAR-4 ovarian, above 100 µM. For the same compound, the TGI in the experiment with PC-3 prostate was above 100 µM; with RPMI-8226 leukemia, above 59.7 µM; with SK-MEL-5 melanoma it was 2.25 µM; in the experiment with SNB-19 CNS it was 2.5 µM; in the experiment on SW-620 colon it was above 73.8 µM; in the experiment on U251 CNS, 11.2 µM. Further, the TGI in the experiment with UACC-62 melanoma was 0.653 µM; with UO-31 renal, 8.27 µM.

(Values after PubChem BioAssay (NCI).)
